Experimental data as given in patent US20030229451A1, “Methods and systems for analyzing complex biological systems” (priority 2001, published 2003).

Tested on: Saccharomyces cerevisiae wild type strain BY4743
Assay: AF1 metabolite analysis (GC-MS, LC-MS) of yeast cells treated with antifungal drugs
Type: cell-based
Conditions: for # Compounds perturbed: 2x MIC, two hours

Structure (SMILES): C[C@@H]1[C@H](O)[C@@H](C)/C=C/C=C/C=C/C=C/C=C/C=C/C=C/[C@H](O[C@@H]2O[C@H](C)[C@@H](O)[C@H](N)[C@@H]2O)C[C@@H]2O[C@](O)(C[C@@H](O)C[C@@H](O)[C@H](O)CC[C@@H](O)C[C@@H](O)CC(=O)O[C@H]1C)C[C@H](O)[C@H]2C(=O)O [Amphoteracin B]
- # Compounds perturbed (P < 0.05): 16
- # Compounds perturbed (P < 0.1): 21
- Fold Change (platform GC): −0.933
- Fold Change, TMS mevalonic acid lactone (platform GC): −0.9767
- Fold Change, alanine (platform GC): −0.7773
- Fold Change, asparagine (platform GC): −1
- Fold Change, aspartic acid (platform GC): −0.9743
- Fold Change, campesterol (platform GC): 0
- Fold Change, desmosterol (platform GC): 0
- Fold Change, disaccaride1 (platform GC): −1
- Fold Change, disaccaride2 (platform GC): −0.9977
- Fold Change, disaccaride3 (platform GC): −0.9977
- Fold Change, ergosterol (platform GC): 2.303
- Fold Change, fucosterol (platform GC): −0.6553
- Fold Change, glutamine (platform GC): −0.9116
- Fold Change, glycanopyrose (platform GC): −0.958
- Fold Change, glycerol (platform GC): −0.815
- Fold Change, glycine (platform GC): 0.8807
- Fold Change, hexadecanoic acid (platform GC): −0.2427
- Fold Change, iso citric acid (platform GC): −0.6183
- Fold Change, isoleucine (platform GC): −0.9533
- Fold Change, lanosterol (platform GC): −1
- Fold Change, leucine (platform GC): −0.9443
- Fold Change, lysine (platform GC): −0.3925
- Fold Change, malic acid (platform GC): −0.963
- Fold Change, mevalonic acid lactone (platform GC): −0.1276
- Fold Change, octadecanoic acid (platform GC): 0.21
- Fold Change, oleic acid (platform GC): −0.4593
- Fold Change, ornithine2 (platform GC): −1
- Fold Change, ornithine3 (platform GC): −0.9853
- Fold Change, palmiteliadic acid (platform GC): 0.515
- Fold Change, phenylalanine (platform GC): −0.9797
- Fold Change, phosphate (platform GC): −0.007333
- Fold Change, pyrimidine (platform GC): −0.185
- Fold Change, squalene (platform GC): −0.5745
- Fold Change, tetradecanoic acid (platform GC): 0.07967
- Fold Change, threonine2 (platform GC): −0.8553
- Fold Change, threonine3 (platform GC): −0.8933
- Fold Change, tms glutamine3 (platform GC): −0.8935
- Fold Change, tms lysine4 (platform GC): −0.9783
- Fold Change, tms tyrosine2 (platform GC): −0.3593
- Fold Change, tms tyrosine3 (platform GC): −0.9473
- Fold Change, valine (platform GC): −0.8673
- Fold Change, 2-ketobutyric acid (platform nLC): −0.9992
- Fold Change, 2-ketoglutaric (platform nLC): 8.791
- Fold Change, 3-indolylacetonitri (platform nLC): −0.9998
- Fold Change, 4-methylcatechol (platform nLC): 0
- Fold Change, 4aminobutyrate/dimg (platform nLC): −0.1983
- Fold Change, 5hydroxyLtryptophan (platform nLC): 0
- Fold Change, 6-benzylaminopurine (platform nLC): 0
- Fold Change, DLaminoadipic acid (platform nLC): 1.411
- Fold Change, NacetylDglucosamine (platform nLC): 0
- Fold Change, NacetylLglutamate (platform nLC): −0.1078
- Fold Change, NacetylLornithine (platform nLC): 0
- Fold Change, abscisic acid (platform nLC): 0
- Fold Change, aconitic acid (platform nLC): 0.5426
- Fold Change, adenine (platform nLC): 0
- Fold Change, adenosine (platform nLC): 0
- Fold Change, alanine (platform nLC): 0.1599
- Fold Change, allantoic acid (platform nLC): −0.1456
- Fold Change, allantoin (platform nLC): 3.97
- Fold Change, anthranilic acid (platform nLC): 0
- Fold Change, arginine (platform nLC): −0.4885
- Fold Change, argininosuccinate (platform nLC): 0
- Fold Change, asparagine (platform nLC): 0.1511
- Fold Change, aspartic (platform nLC): 0.2407
- Fold Change, benzoic acid (platform nLC): 0
- Fold Change, biotin (platform nLC): 1.077
- Fold Change, caffeic acid (platform nLC): −0.5882
- Fold Change, catechol (platform nLC): 0
- Fold Change, cinnamic acid (platform nLC): 0
- Fold Change, citricanoic/itaconi. (platform nLC): 0
- Fold Change, citrulline (platform nLC): 1659
- Fold Change, coumaric acid (platform nLC): 0
- Fold Change, cytidine (platform nLC): −0.9986
- Fold Change, cytosine (platform nLC): 0
- Fold Change, decanoic acid (platform nLC): −0.08716
- Fold Change, diaminopimelic acid (platform nLC): 0
- Fold Change, dihydrofolic acid (platform nLC): 0
- Fold Change, estrone (platform nLC): 0
- Fold Change, farnesol (platform nLC): 0
- Fold Change, folic acid (platform nLC): 0
- Fold Change, fumaric/3m2oxobutan (platform nLC): 0.4423
- Fold Change, gallic acid (platform nLC): 0.1622
- Fold Change, gibberellic (platform nLC): 0
- Fold Change, glucosamine6PO4 (platform nLC): −0.9951
- Fold Change, glutamic/acetylseri (platform nLC): 0.1414
- Fold Change, glutamine/lysine (platform nLC): 0.07919
- Fold Change, guanine (platform nLC): 0
- Fold Change, guanosine (platform nLC): 1.131
- Fold Change, histidine (platform nLC): 0
- Fold Change, homogentisic/uric (platform nLC): 0
- Fold Change, hydrocortisone (platform nLC): 0
- Fold Change, hypoxanthine (platform nLC): 0.1655
- Fold Change, indole3pyruvic acid (platform nLC): 0
- Fold Change, inostol/glucos/sorb (platform nLC): −0.5905
- Fold Change, isocitric/citric/qu (platform nLC): 2.549
- Fold Change, jasmonic acid (platform nLC): 0
- Fold Change, kinetin (platform nLC): 0
- Fold Change, lactic acid (platform nLC): −0.02583
- Fold Change, lauric acid (platform nLC): 0.1225
- Fold Change, leucine/isoleucine/ (platform nLC): 0.1319
- Fold Change, luteolin (platform nLC): 0
- Fold Change, malic acid (platform nLC): 0.6212
- Fold Change, malonic acid (platform nLC): 0
- Fold Change, menthol* (platform nLC): −0.07013
- Fold Change, methionine (platform nLC): 0
- Fold Change, nicotinic acid (platform nLC): 0.3131
- Fold Change, nopaline (platform nLC): 0.3342
- Fold Change, oleic acid (platform nLC): 0.689
- Fold Change, ornithine (platform nLC): 2.534
- Fold Change, orotic acid (platform nLC): 8380
- Fold Change, palmitic acid (platform nLC): 0.3979
- Fold Change, phenylalanine (platform nLC): −0.1906
- Fold Change, phenylpyruvic acid (platform nLC): 0
- Fold Change, phosphoenolpyruvate (platform nLC): 0
- Fold Change, pinitol (platform nLC): 0
- Fold Change, pipecolic acid (platform nLC): 0.08112
- Fold Change, porphobilinogen (platform nLC): 0
- Fold Change, proline (platform nLC): 0.4603
- Fold Change, pyridoxine (platform nLC): −0.1294
- Fold Change, retinoic acid (platform nLC): 0
- Fold Change, salicylic/HObenzoic (platform nLC): 0
- Fold Change, selenoDLmethionine (platform nLC): 0.8515
- Fold Change, serine (platform nLC): 0.1091
- Fold Change, shikimic acid (platform nLC): 0
- Fold Change, sinapinic acid (platform nLC): 0
- Fold Change, sorbitol/mannitol (platform nLC): 0.2162
- Fold Change, succinic (platform nLC): 0.8663
- Fold Change, sucrose (platform nLC): 0.4493
- Fold Change, sugar-phosphate (platform nLC): −0.1067
- Fold Change, tetradecanoic acid (platform nLC): −0.07723
- Fold Change, threonine/homoserin (platform nLC): 0.1267
- Fold Change, thymine (platform nLC): 0
- Fold Change, tryptophan (platform nLC): 1.142
- Fold Change, tyrosine (platform nLC): 0.0982
- Fold Change, uracil (platform nLC): 1.511
- Fold Change, uridine (platform nLC): 0.1126
- Fold Change, urocanic acid (platform nLC): 0
- Fold Change, valine (platform nLC): 0.1624
- Fold Change, xanthosineDiH2O (platform nLC): 0
- Fold Change, zeatin (platform nLC): 0
- Fold Change, 4-aminobenzoic acid (platform pLC): 0
- Fold Change, 4-methylcatechol (platform pLC): 0
- Fold Change, 4ambutyrate/dimglyc (platform pLC): 0.01279
- Fold Change, 5hydroxyLtryptophan (platform pLC): 0
- Fold Change, 6benzylaminopurine (platform pLC): 0
- Fold Change, DL-aminoadipic acid (platform pLC): 0.4703
- Fold Change, NacetylDglucosamine (platform pLC): 0
- Fold Change, NacetylLglutamate (platform pLC): 0
- Fold Change, NacetylLornithine (platform pLC): 1.319
- Fold Change, abscisic acid (platform pLC): 0
- Fold Change, adenine (platform pLC): 0.1153
- Fold Change, adenosine (platform pLC): 0
- Fold Change, alanine/sarcosine (platform pLC): 0.2602
- Fold Change, allantoic acid (platform pLC): 0
- Fold Change, anthranilic acid (platform pLC): 0
- Fold Change, arginine (platform pLC): 0.4662
- Fold Change, argininosuccinate (platform pLC): 0
- Fold Change, asparagine (platform pLC): 0.6344
- Fold Change, aspartic acid (platform pLC): 0.3594
- Fold Change, biotin (platform pLC): 0
- Fold Change, caffeine (platform pLC): 0
- Fold Change, citric acid TME (platform pLC): 0
- Fold Change, citrulline (platform pLC): 1.798
- Fold Change, cytidine (platform pLC): 0
- Fold Change, cytosine (platform pLC): 0
- Fold Change, diaminopimelic acid (platform pLC): 0
- Fold Change, dihydrofolic acid (platform pLC): 0
- Fold Change, dipicolinic acid (platform pLC): 0
- Fold Change, folic acid (platform pLC): 0
- Fold Change, glucosamine (platform pLC): 0
- Fold Change, glucosamine6PO4 (platform pLC): 0
- Fold Change, glutamate (platform pLC): 0.4341
- Fold Change, glutamine/lysine (platform pLC): 0.3981
- Fold Change, glutathione (platform pLC): −0.03348
- Fold Change, guanosine (platform pLC): 0.7598
- Fold Change, histidine (platform pLC): 0
- Fold Change, hydrocortisone (platform pLC): 0
- Fold Change, hypoxanthine (platform pLC): 0.2057
- Fold Change, itaconic acid dimes (platform pLC): 0
- Fold Change, kinetin (platform pLC): 0
- Fold Change, leucine/isoleucine/ (platform pLC): 0.2746
- Fold Change, luteolin (platform pLC): 0
- Fold Change, mannitol (platform pLC): 0.4543
- Fold Change, methionine (platform pLC): 0.3299
- Fold Change, mevalonic lactone (platform pLC): −0.4606
- Fold Change, niacinamide (platform pLC): 0
- Fold Change, nicotinic acid (platform pLC): −0.9989
- Fold Change, nopaline (platform pLC): 0
- Fold Change, ornithine (platform pLC): 0.5049
- Fold Change, phenylalanine (platform pLC): 0.4036
- Fold Change, phosphoenolpyruvate (platform pLC): 0
- Fold Change, pipecolic acid (platform pLC): 0.5237
- Fold Change, progesterone (platform pLC): 0
- Fold Change, proline (platform pLC): 0.6707
- Fold Change, pyridoxine (platform pLC): −0.1684
- Fold Change, riboflavin (platform pLC): 0
- Fold Change, selenoDLmethionine (platform pLC): 1.178
- Fold Change, serine (platform pLC): 0.2011
- Fold Change, sugar-phosphate (platform pLC): 0
- Fold Change, thiamine (platform pLC): 0
- Fold Change, threonine/homoserin (platform pLC): 0.3145
- Fold Change, thymine (platform pLC): 0
- Fold Change, tryptophan (platform pLC): 0
- Fold Change, tyrosine (platform pLC): 0.2347
- Fold Change, uric acid (platform pLC): 308
- Fold Change, urocanic acid (platform pLC): 0
- Fold Change, xanthosine(diH2O) (platform pLC): 0
- Fold Change, zeatin (platform pLC): 0
